A word on the IC50: it is the midpoint of a concentration-inhibition curve. A lower IC50 goes with greater potency in that assay.

The target in one assay is FGFR1 (Homo sapiens (Human), UniProt P11362). Briefly: FGFR Enzymatic Assay (FRET peptide phosphorylation), FGFR1. The following applies: IC50 ratio showing FGFR4 selectivity.
For the next assay, the target named is FGFR2 (Homo sapiens (Human), UniProt P21802). Briefly: FGFR Enzymatic Assay (FRET peptide phosphorylation), FGFR2. The settings on record: IC50 ratio showing FGFR4 selectivity.
Chain of FGFR2 (P21802 22-821): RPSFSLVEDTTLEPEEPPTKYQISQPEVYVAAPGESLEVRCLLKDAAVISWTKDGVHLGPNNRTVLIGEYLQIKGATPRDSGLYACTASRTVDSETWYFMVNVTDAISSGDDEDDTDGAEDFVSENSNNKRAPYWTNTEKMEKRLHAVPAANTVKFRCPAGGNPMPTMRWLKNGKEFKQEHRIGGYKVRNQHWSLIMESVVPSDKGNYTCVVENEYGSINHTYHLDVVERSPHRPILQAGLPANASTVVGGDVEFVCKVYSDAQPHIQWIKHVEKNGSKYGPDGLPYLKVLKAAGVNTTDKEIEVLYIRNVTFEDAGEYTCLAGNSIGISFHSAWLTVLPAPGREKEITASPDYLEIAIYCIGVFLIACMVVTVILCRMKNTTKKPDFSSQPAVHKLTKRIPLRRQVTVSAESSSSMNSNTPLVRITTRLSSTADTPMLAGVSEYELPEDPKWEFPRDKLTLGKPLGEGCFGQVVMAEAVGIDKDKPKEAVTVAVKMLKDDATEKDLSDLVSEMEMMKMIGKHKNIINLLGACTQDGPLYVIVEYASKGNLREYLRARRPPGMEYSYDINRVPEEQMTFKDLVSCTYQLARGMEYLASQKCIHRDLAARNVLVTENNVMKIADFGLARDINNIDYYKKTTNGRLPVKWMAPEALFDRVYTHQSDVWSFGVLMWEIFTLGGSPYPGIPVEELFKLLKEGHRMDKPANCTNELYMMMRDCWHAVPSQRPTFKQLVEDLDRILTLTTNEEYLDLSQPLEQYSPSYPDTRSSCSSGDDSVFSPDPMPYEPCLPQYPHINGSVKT
The target of a further assay is FGFR3 (Homo sapiens (Human), UniProt P22607). Nature of the assay: FGFR Enzymatic Assay (FRET peptide phosphorylation), FGFR3. The settings on record: IC50 ratio showing FGFR4 selectivity.
Chain of FGFR3 (P22607 23-806): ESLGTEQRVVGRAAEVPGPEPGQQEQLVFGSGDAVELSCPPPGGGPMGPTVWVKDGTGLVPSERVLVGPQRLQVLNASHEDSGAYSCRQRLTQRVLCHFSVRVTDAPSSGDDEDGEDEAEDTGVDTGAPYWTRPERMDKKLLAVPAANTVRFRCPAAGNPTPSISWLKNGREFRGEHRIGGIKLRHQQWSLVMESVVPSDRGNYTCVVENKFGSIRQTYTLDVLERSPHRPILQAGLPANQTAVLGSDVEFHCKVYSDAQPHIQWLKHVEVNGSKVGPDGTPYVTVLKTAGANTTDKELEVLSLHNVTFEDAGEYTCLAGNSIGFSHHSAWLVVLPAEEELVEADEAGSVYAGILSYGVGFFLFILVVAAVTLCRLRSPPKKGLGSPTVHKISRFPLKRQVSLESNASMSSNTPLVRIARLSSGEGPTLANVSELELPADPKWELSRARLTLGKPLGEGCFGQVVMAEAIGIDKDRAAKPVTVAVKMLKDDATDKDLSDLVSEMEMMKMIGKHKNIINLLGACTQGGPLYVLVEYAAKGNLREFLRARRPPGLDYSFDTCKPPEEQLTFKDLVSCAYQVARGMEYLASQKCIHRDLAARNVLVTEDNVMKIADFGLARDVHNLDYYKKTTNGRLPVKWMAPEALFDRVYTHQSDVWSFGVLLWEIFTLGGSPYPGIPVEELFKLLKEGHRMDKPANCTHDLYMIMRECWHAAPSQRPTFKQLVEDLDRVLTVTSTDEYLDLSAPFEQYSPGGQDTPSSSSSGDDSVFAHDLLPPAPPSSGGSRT
The target in the next assay is FGFR4 (Homo sapiens (Human), UniProt P22455). Briefly: FGFR Enzymatic Assay (FRET peptide phosphorylation), FGFR4.
Chain of FGFR4 (P22455 22-802): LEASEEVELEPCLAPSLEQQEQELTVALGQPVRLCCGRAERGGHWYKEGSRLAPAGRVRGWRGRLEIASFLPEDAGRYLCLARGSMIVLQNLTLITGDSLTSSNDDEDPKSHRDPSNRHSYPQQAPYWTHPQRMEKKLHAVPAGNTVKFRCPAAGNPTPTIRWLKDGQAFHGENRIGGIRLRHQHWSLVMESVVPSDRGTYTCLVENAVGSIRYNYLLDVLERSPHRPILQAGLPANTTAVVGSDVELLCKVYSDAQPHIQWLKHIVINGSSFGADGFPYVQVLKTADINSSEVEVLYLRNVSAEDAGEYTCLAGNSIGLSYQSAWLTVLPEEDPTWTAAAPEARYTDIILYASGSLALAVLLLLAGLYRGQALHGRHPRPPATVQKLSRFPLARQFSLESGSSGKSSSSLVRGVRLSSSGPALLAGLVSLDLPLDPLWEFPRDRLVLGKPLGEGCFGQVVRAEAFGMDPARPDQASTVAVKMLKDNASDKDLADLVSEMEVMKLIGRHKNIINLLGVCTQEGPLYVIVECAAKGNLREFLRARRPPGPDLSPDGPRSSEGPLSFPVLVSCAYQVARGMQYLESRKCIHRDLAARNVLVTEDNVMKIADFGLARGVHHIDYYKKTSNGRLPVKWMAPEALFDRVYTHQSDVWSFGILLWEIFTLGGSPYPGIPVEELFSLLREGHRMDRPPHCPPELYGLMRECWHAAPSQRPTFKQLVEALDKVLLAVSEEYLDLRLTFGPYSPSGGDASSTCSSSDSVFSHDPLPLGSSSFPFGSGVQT
[1] abbreviates: pre-incubated for 5 to 10 minutes.

Molecules are shown by their SMILES.

Chain of FGFR1 (P11362 22-822): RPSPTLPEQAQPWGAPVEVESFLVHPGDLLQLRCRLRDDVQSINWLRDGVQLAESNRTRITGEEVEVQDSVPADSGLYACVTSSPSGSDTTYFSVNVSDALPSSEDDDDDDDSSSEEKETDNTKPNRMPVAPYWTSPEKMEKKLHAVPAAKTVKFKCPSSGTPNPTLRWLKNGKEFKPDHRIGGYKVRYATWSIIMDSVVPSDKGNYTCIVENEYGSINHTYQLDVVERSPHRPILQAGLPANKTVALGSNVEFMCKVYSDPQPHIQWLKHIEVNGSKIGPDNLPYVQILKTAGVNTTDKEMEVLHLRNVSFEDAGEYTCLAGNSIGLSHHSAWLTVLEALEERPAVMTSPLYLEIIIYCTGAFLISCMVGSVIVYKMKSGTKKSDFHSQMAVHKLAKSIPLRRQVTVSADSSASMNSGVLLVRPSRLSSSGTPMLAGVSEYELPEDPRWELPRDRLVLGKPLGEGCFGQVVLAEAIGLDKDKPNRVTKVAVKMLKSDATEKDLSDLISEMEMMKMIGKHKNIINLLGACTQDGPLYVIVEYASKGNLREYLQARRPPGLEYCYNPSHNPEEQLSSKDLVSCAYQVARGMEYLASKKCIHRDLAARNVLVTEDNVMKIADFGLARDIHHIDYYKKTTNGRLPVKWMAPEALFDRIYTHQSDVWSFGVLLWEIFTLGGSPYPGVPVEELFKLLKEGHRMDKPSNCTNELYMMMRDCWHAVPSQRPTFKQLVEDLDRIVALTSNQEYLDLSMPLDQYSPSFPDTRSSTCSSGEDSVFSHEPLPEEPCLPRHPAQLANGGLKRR
From the text for FGFR1: (§1) The enzymes were purchased from Millipore or Invitrogen.
(§2) GraphPad prism3 was used to analyze the data. The IC50 values were derived by fitting the data to the equation for a sigmoidal dose-response with a variable slope. Y=Bottom+(Top-Bottom)/(1+10^((LogIC50-X)*HillSlope)) where X is the logarithm of concentration and Y is the response.
From the text for FGFR2: as §1, §2
From the text for FGFR3: as §1, §2
From the text for FGFR4: as §1, §2

Consider `C=CC(=O)Nc1cnn(CC(=O)NC)c1-c1cc2c(cn1)CN(c1c(F)c(OC)cc(OC)c1F)C(=O)C21CC1` [Example 20, N-(5-(2′-(2,6-difluoro-3,5-dimethoxyphenyl)-3′-oxo-2′,3′-dihydro-1′H-spiro[cyclopropane-1,4′-[2,7]naphthyridine]-6′-yl)-1-(2-(methylamino)-2-oxoethyl)-1H-pyrazol-4-yl)acrylamide], for which, at FGFR1 (pre-incubated for 4 hours), the FGFR1/FGFR4 is given as above 50. Moreover, on FGFR2 (pre-incubated for 4 hours), the FGFR2/FGFR4 is given as above 100. Besides, the FGFR3/FGFR4 on FGFR3 (pre-incubated for 4 hours) is on record as above 100. In addition, on FGFR4, the IC50 lay within 10 to 30 nM.

With `C=CC(=O)Nc1cc(CN2CCOCC2)cc(-c2cc3c(cn2)CN(c2c(F)c(OC)cc(OC)c2F)C(=O)C32CC2)c1` [Example 11, N-[3-[2′-(2,6-difluoro-3,5-dimethoxyphenyl)-3′-oxo-2′,3′-dihydro-1′H-spiro[cyclopropane-1,4′-[2,7]naphthyridin]-6′-yl]-5-(morpholin-4-ylmethyl)phenyl]acrylamide], the FGFR1/FGFR4 on FGFR1 (setting [1]) and at FGFR1 (pre-incubated for 4 hours) was above 100 throughout. Further, the FGFR2/FGFR4 on FGFR2 (setting [1]) and on FGFR2 (pre-incubated for 4 hours) was above 100 in each case. In addition, the FGFR3/FGFR4 on FGFR3 (setting [1]) and at FGFR3 (pre-incubated for 4 hours) was above 100 in each case.

On to `C=CC(=O)Nc1cc(-c2cc3c(cn2)CN(c2c(F)c(OC)cc(OC)c2F)C(=O)C32CC2)c(C)cc1F` [Example 6, N-(5-(2′-(2,6-difluoro-3,5-dimethoxyphenyl)-3′-oxo-2′,3′-dihydro-1′H-spiro[cyclopropane-1,4′-[2,7]naphthyridine]-6′-yl)-2-fluoro-4-methylphenyl)acrylamide], for which the FGFR1/FGFR4 at FGFR1 (setting [1]) and on FGFR1 (pre-incubated for 4 hours) was above 100 throughout. Also, the FGFR2/FGFR4 at FGFR2 (setting [1]) and on FGFR2 (pre-incubated for 4 hours) was above 100 in each case. The FGFR3/FGFR4 on FGFR3 (setting [1]) and on FGFR3 (pre-incubated for 4 hours) was above 100 in each case.

Consider `C=CC(=O)Nc1cnn(C2CCOCC2)c1-c1cc2c(cn1)CN(c1c(F)c(OC)cc(OC)c1F)C(=O)C21CC1` [Example 18, N-(5-(2′-(2,6-difluoro-3,5-dimethoxyphenyl)-3′-oxo-2′,3′-dihydro-1′H-spiro[cyclopropane-1,4′-[2,7]naphthyridine]-6′-yl)-1-(tetrahydro-2H-pyran-4-yl)-1H-pyrazol-4-yl)acrylamide], for which, at FGFR1 (pre-incubated for 4 hours), the FGFR1/FGFR4 is above 100. In addition, on FGFR2 (pre-incubated for 4 hours), the FGFR2/FGFR4 is on record as above 50. Further, the FGFR3/FGFR4 at FGFR3 (pre-incubated for 4 hours) is listed as above 100.

On to `C=CC(=O)Nc1cn(CCOC(F)(F)F)nc1-c1cc2c(cn1)CN(c1c(F)c(OC)cc(OC)c1F)C(=O)C21CC1` [Example 33, N-(3-(2′-(2,6-difluoro-3,5-dimethoxyphenyl)-3′-oxo-2′,3′-dihydro-1′H-spiro[cyclopropane-1,4′-[2,7]naphthyridine]-6′-yl)-1-(2-(trifluoromethoxy)ethyl)-1H-pyrazol-4-yl)acrylamide], for which the FGFR1/FGFR4 at FGFR1 (pre-incubated for 4 hours) is recorded as above 100. The FGFR2/FGFR4 on FGFR2 (pre-incubated for 4 hours) is on record as above 100. Besides, the FGFR3/FGFR4 at FGFR3 (pre-incubated for 4 hours) was above 100.

For the compound `C=CC(=O)Nc1cnn(C[C@@H]2CCOC2)c1-c1cc2c(cn1)CN(c1c(F)c(OC)cc(OC)c1F)C(=O)C21CC1` [Example 28, (S)-N-(5-(2′-(2,6-difluoro-3,5-dimethoxyphenyl)-3′-oxo-2′,3′-dihydro-1′H-spiro[cyclopropane-1,4′-[2,7]naphthyridine]-6′-yl)-1-((tetrahydrofuran-3-yl)methyl)-1H-pyrazol-4-yl)acrylamide], on FGFR1 (pre-incubated for 4 hours), the FGFR1/FGFR4 is reported as above 100. In addition, the FGFR2/FGFR4 at FGFR2 (pre-incubated for 4 hours) is above 100. Further, on FGFR3 (pre-incubated for 4 hours), the FGFR3/FGFR4 is above 100.

Regarding `C=CC(=O)Nc1cnn(CCOCC)c1-c1cc2c(cn1)CN(c1c(F)c(OC)cc(OC)c1F)C(=O)C21CC1` [Example 16, N-(5-(2′-(2,6-difluoro-3,5-dimethoxyphenyl)-3′-oxo-2′,3′-dihydro-1′H-spiro[cyclopropane-1,4′-[2,7]naphthyridine]-6′-yl)-1-(2-ethoxyethyl)-1H-pyrazol-4-yl)acrylamide], the FGFR1/FGFR4 at FGFR1 (pre-incubated for 4 hours) was above 100. Further, the FGFR2/FGFR4 on FGFR2 (pre-incubated for 4 hours) is reported as above 100. At FGFR3 (pre-incubated for 4 hours), the FGFR3/FGFR4 is on record as above 100.

For `C=CC(=O)Nc1ccc(C)c(-c2cc3c(cn2)CN(c2c(F)c(OC)cc(OC)c2F)C(=O)C32CC2)c1` [Example 2, N-(3-(2′-(2,6-difluoro-3,5-dimethoxyphenyl)-3′-oxo-2′,3′-dihydro-1′H-spiro[cyclopropane-1,4′-[2,7]naphthyridine]-6′-yl)-4-methylphenyl)acrylamide], the FGFR1/FGFR4 on FGFR1 (setting [1]) and on FGFR1 (pre-incubated for 4 hours) was above 100 throughout. For the same compound, the FGFR2/FGFR4 on FGFR2 (setting [1]) and at FGFR2 (pre-incubated for 4 hours) was above 100 each time. In addition, the FGFR3/FGFR4 at FGFR3 (setting [1]) and at FGFR3 (pre-incubated for 4 hours) was above 100 in each case.

On to `C=CC(=O)Nc1cn(CC2CCOCC2)nc1-c1cc2c(cn1)CN(c1c(F)c(OC)cc(OC)c1F)C(=O)C21CC1` [Example 35, N-(3-(2′-(2,6-difluoro-3,5-dimethoxyphenyl)-3′-oxo-2′,3′-dihydro-1′H-spiro[cyclopropane-1,4′-[2,7]naphthyridine]-6′-yl)-1-((tetrahydro-2H-pyran-4-yl)methyl)-1H-pyrazol-4-yl)acrylamide], for which the FGFR1/FGFR4 on FGFR1 (pre-incubated for 4 hours) is above 100. Moreover, the FGFR2/FGFR4 at FGFR2 (pre-incubated for 4 hours) is given as above 100. Besides, the FGFR3/FGFR4 at FGFR3 (pre-incubated for 4 hours) is above 100.

As to `C=CC(=O)Nc1cnn(Cc2ccncc2)c1-c1cc2c(cn1)CN(c1c(F)c(OC)cc(OC)c1F)C(=O)C21CC1` [Example 21, N-(5-(2′-(2,6-difluoro-3,5-dimethoxyphenyl)-3′-oxo-2′,3′-dihydro-1′H-spiro[cyclopropane-1,4′-[2,7]naphthyridine]-6′-yl)-1-(pyridin-4-ylmethyl)-1H-pyrazol-4-yl)acrylamide], the FGFR1/FGFR4 on FGFR1 (pre-incubated for 4 hours) was above 100. The FGFR2/FGFR4 on FGFR2 (pre-incubated for 4 hours) was above 50. Moreover, at FGFR3 (pre-incubated for 4 hours), the FGFR3/FGFR4 was above 100.

For `C=CC(=O)Nc1cnn(CC2CCOCC2)c1-c1cc2c(cn1)CN(c1c(F)c(OC)cc(OC)c1F)C(=O)C21CC1` [Example 24, N-(5-(2′-(2,6-difluoro-3,5-dimethoxyphenyl)-3′-oxo-2′,3′-dihydro-1′H-spiro[cyclopropane-1,4′-[2,7]naphthyridine]-6′-yl)-1-((tetrahydro-2H-pyran-4-yl)methyl)-1H-pyrazol-4-yl)acrylamide], the FGFR1/FGFR4 on FGFR1 (pre-incubated for 4 hours) is on record as above 100. In addition, the FGFR2/FGFR4 at FGFR2 (pre-incubated for 4 hours) is recorded as above 100. Moreover, the FGFR3/FGFR4 at FGFR3 (pre-incubated for 4 hours) is listed as above 100.

For the compound `C=CC(=O)Nc1cnn(Cc2ccnn2C)c1-c1cc2c(cn1)CN(c1c(F)c(OC)cc(OC)c1F)C(=O)C21CC1` [Example 26, N-(5-(2′-(2,6-difluoro-3,5-dimethoxyphenyl)-3′-oxo-2′,3′-dihydro-1′H-spiro[cyclopropane-1,4′-[2,7]naphthyridine]-6′-yl)-1-((1-methyl-1H-pyrazol-5-yl)methyl)-1H-pyrazol-4-yl)acrylamide], the FGFR1/FGFR4 on FGFR1 (pre-incubated for 4 hours) is on record as above 100. For the same compound, the FGFR2/FGFR4 on FGFR2 (pre-incubated for 4 hours) is above 50. The FGFR3/FGFR4 at FGFR3 (pre-incubated for 4 hours) is above 100.

With `C=CC(=O)Nc1cnc(C)c(-c2cc3c(cn2)CN(c2c(F)c(OC)cc(OC)c2F)C(=O)C32CC2)c1` [Example 7, N-(5-(2′-(2,6-difluoro-3,5-dimethoxyphenyl)-3′-oxo-2′,3′-dihydro-1′H-spiro[cyclopropane-1,4′-[2,7]naphthyridine]-6′-yl)-6-methylpyridin-3-yl)acrylamide], the FGFR1/FGFR4 at FGFR1 (setting [1]) and on FGFR1 (pre-incubated for 4 hours) was above 100 each time. In addition, the FGFR2/FGFR4 at FGFR2 (setting [1]) and at FGFR2 (pre-incubated for 4 hours) was above 100 throughout. The FGFR3/FGFR4 on FGFR3 (setting [1]) and on FGFR3 (pre-incubated for 4 hours) was above 100 in each case.

The record behind these values is patent publication US9801889B2, “Bicyclic heterocycles as FGFR4 inhibitors” (Incyte Corporation, priority 2015, dated 2017).
